From publication PMC2915818 (2010) come the findings set out here.

Experiment [1] relates to cmyc (DNA, G4) GGGGAGGGTGGGGAGGGTGGGGAAGGTGGGG
The experiment can be described thus: competitive dialysis. The settings on record: 185 mM KCl, 185 mM NaCl; sodium phosphate, 1 mM EDTA, pH 7, room temperature; 50 μM DNA, 1 μM compound.

For experiment [2], the system named is 24bcl (DNA, G4) CGGGCGCGGGAGGAAGGGGGCGGG
In words: competitive dialysis. To be noted: 185 mM KCl, 185 mM NaCl; sodium phosphate, 1 mM EDTA, pH 7, room temperature; 50 μM DNA, 1 μM compound.

The test system of experiment [3] is Ds26 (DNA, duplex) CAATCGGATCGAATTCGATCCGATTG
The experiment can be described thus: competitive dialysis. The settings on record: 185 mM KCl, 185 mM NaCl; sodium phosphate, 1 mM EDTA, pH 7, room temperature; 50 μM DNA, 1 μM compound.

The subject of experiment [4] is cmyc (DNA, G4) GGGGAGGGTGGGGAGGGTGGGGAAGGTGGGG
In words: fluorescence titration, Equispec fit. The settings on record: 185 mM K+, 185 mM Na+ (as KCl, NaCl); sodium phosphate, 1 mM EDTA, pH 7, 25 °C; excitation 252 nm; 0.2 μM compound.

In experiment [5] the test system is HT24 (DNA, G4) TAGGGTTAGGGTTAGGGTTAGGGT
The experiment can be described thus: fluorescence titration, Equispec fit. The settings on record: 185 mM K+, 185 mM Na+ (as KCl, NaCl); sodium phosphate, 1 mM EDTA, pH 7, 25 °C; excitation 252 nm; 0.2 μM compound.

In experiment [6] the test system is TC triplex (DNA, triplex) CCTCCTCTCTTTCCCTTTTTCTTTCTCTCCTCC/GAAAGAGAGGAGG
In words: competitive dialysis. To be noted: 185 mM KCl, 185 mM NaCl; sodium phosphate, 1 mM EDTA, pH 7, room temperature; 50 μM DNA, 1 μM compound.

Experiment [7] concerns 24bcl (DNA, G4) CGGGCGCGGGAGGAAGGGGGCGGG
In words: fluorescence titration, Equispec fit. To be noted: 185 mM K+, 185 mM Na+ (as KCl, NaCl); sodium phosphate, 1 mM EDTA, pH 7, 25 °C; excitation 252 nm; 0.2 μM compound.

The test system of experiment [8] is Dickerson (DNA, duplex) CGCGAATTCGCG
In words: fluorescence titration. The settings on record: 185 mM K+, 185 mM Na+ (as KCl, NaCl); sodium phosphate, 1 mM EDTA, pH 7, 25 °C; up to 10 μM DNA, 0.2 μM compound.

Each structure is given as a SMILES string.

Consider `O=C(O)CNC(=O)c1c2ccccc2nc2ccccc12`, for which the figures for the binding entry in experiment [1], in experiment [2] and in experiment [3] were “yes”, “yes” and “weak”, respectively.
On to `O=C(O)c1c2ccccc2nc2ccccc12`, for which the binding entry in experiment [3] was “yes”.
As for `CC(=O)NCCN(CC(=O)NCCN(CC(=O)NCCCCCCOC(=O)CCC(=O)N(C)CC(N)=O)C(=O)CNC(=O)c1c2ccccc2nc2ccccc12)C(=O)CNC(=O)c1c2ccccc2nc2ccccc12`, the “log K” value in experiment [4] is recorded as 5.5 ± 0.3; in experiment [5], 4.9 ± 0.4; in experiment [7], 6.8 ± 0.5. Also, the binding entry is recorded as “no” in experiment [3], “weak” in experiment [6] and “no” in experiment [8].
In the case of `CC(=O)NCCN(CC(=O)NCCN(CC(=O)NCCCCCCO)C(=O)CNC(=O)c1c2ccccc2nc2ccccc12)C(=O)CNC(=O)c1c2ccccc2nc2ccccc12`, the “log K” value in experiment [4] came out at 4.9 ± 0.2; in experiment [5], 4.6 ± 0.5; in experiment [7] it was 5.1 ± 0.1.
With `CC(=O)NCCN(CC(=O)NCCN(CC(=O)NCCN(CC(=O)NCCCCCCOC(=O)CCC(=O)N(C)CC(N)=O)C(=O)CNC(=O)c1c2ccccc2nc2ccccc12)C(=O)CNC(=O)c1c2ccccc2nc2ccccc12)C(=O)CNC(=O)c1c2ccccc2nc2ccccc12`, the “log K” value in experiment [4] is on record as 4.8 ± 0.5; in experiment [5] it was 5.3 ± 0.3; in experiment [7], 5.3 ± 0.2.
`CC(=O)NCCN(CC(=O)NCCN(CC(=O)NCCN(CC(=O)NCCCCCCO)C(=O)CNC(=O)c1c2ccccc2nc2ccccc12)C(=O)CNC(=O)c1c2ccccc2nc2ccccc12)C(=O)CNC(=O)c1c2ccccc2nc2ccccc12`: in experiment [4], the “log K” value was found to be 5.3 ± 0.2. Further, the binding result in experiment [2] is listed as “yes”.
